Data from patent publication US8835476B2, “Synthesis of novel antimicrobials” (priority 2005, dated 2014).
Read-outs that look alike come from different tables or passages of the source.

Tests used:
Type in all cases: cell-based
A. anitratus ATCC 19606 = test: Broth microdilution MIC, ATCC strains; conditions: Acinetobacter calcoaceticus, ATCC19606; A. anitratus ATCC 19606; read-out: MIC (growth inhibition, microdilution method)
Method in brief: (§1)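 Clinical organisms, randomly drawn NAUTICA urinary isolates, and ATCC reference strains tested by NCCLS M7-A6 broth microdilution at 5×10^5 CFU/ml. Incubation 16 to 20 hours, 35° C, ambient air; MIC defined as lowest concentration without visible growth.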

B. cepacia ATCC 25416 = test: Broth microdilution MIC, ATCC strains; conditions: Burkholderia cepacia, ATCC25416; B. cepacia ATCC 25416; read-out: MIC (growth inhibition, microdilution method)
Method in brief: as §1

E. aerogenes ATCC 13048 = test: Broth microdilution MIC, ATCC strains; conditions: Klebsiella aerogenes, ATCC13048; E. aerogenes ATCC 13048; read-out: MIC (growth inhibition, microdilution method)
Method in brief: as §1

E. coli ATCC 25922 = test: Broth microdilution MIC, ATCC strains; conditions: Escherichia coli, ATCC25922, E. coli ATCC 25922; read-out: MIC (growth inhibition, microdilution method)
Method in brief: as §1

E. faecalis ATCC 29212 = test: Broth microdilution MIC, ATCC strains; conditions: Enterococcus faecalis, read-out: MIC (growth inhibition, microdilution method)
Method in brief: as §1

K. oxytoca ATCC 49131 = test: Broth microdilution MIC, ATCC strains; conditions: Klebsiella oxytoca, ATCC49131; K. oxytoca ATCC 49131; read-out: MIC (growth inhibition, microdilution method)
Method in brief: as §1

K. pneumoniae ATCC 13883 = test: Broth microdilution MIC, ATCC strains; conditions: Klebsiella pneumoniae, ATCC13883; K. pneumoniae ATCC 13883; read-out: MIC (growth inhibition, microdilution method)
Method in brief: as §1

MRSA ATCC 33591 = test: Broth microdilution MIC, ATCC strains; conditions: Staphylococcus aureus; MRSA ATCC 33591; read-out: MIC (growth inhibition, microdilution method)
Method in brief: as §1

P. vulgaris ATCC 49132 = test: Broth microdilution MIC, ATCC strains; conditions: Proteus vulgaris, ATCC49132; P. vulgaris ATCC 49132; read-out: MIC (growth inhibition, microdilution method)
Method in brief: as §1

[1] = system: Ps. aeruginosa ATCC 27853; test: Broth microdilution MIC, ATCC strains; conditions: Pseudomonas aeruginosa, ATCC27853; Ps. aeruginosa ATCC 27853; read-out: MIC (growth inhibition, microdilution method)
Method in brief: as §1

S. aureus ATCC 29213 = test: Broth microdilution MIC, ATCC strains; conditions: Staphylococcus aureus, ATCC29213, S. aureus ATCC 29213; read-out: MIC (growth inhibition, microdilution method)
Method in brief: as §1

[2] = system: S. maltophilia ATCC 13637; test: Broth microdilution MIC, ATCC strains; conditions: Stenotrophomonas maltophilia, ATCC13637; S. maltophilia ATCC 13637; read-out: MIC (growth inhibition, microdilution method)
Method in brief: as §1

S. marcescens ATCC 8100 = test: Broth microdilution MIC, ATCC strains; conditions: Serratia marcescens, ATCC8100; S. marcescens ATCC 8100; read-out: MIC (growth inhibition, microdilution method)
Method in brief: as §1

[3] = system: A. baumanii clinical isolates; test: Broth microdilution MIC, clinical isolate strains (NAUTICA); conditions: Table 4B; each table row is one clinical isolate; unit assumed
Method in brief: as §1

[4] = system: B. cepacia clinical isolates; test: as above; conditions: Table 4B; each table row is one clinical isolate; unit assumed
Method in brief: as §1

[5] = system: C. amalonaticus clinical isolates; test: as above; conditions: Table 4B; each table row is one clinical isolate; unit assumed
Method in brief: as §1

[6] = system: C. freundii clinical isolates; test: as above; conditions: Table 4B; each table row is one clinical isolate; in µg/mL (unit assumed)
Method in brief: as §1

[7] = system: C. koseril clinical isolates; test: as above; conditions: Table 4B; each table row is one clinical isolate; unit assumed
Method in brief: as §1

[8] = system: E. aerogenes clinical isolates; test: as above; conditions: Table 4B; each table row is one clinical isolate; unit assumed
Method in brief: as §1

[9] = system: E. cloacae clinical isolates; test: as above; conditions: Table 4B; each table row is one clinical isolate; unit assumed
Method in brief: as §1

[10] = system: E. coli clinical isolates; test: as above; conditions: Table 4B; each table row is one clinical isolate; unit assumed
Method in brief: as §1

[11] = system: K. oxytoca clinical isolates; test: as above; conditions: Table 4B; each table row is one clinical isolate; unit assumed
Method in brief: as §1

[12] = system: K. pneumoniae clinical isolates; test: as above; conditions: Table 4B; each table row is one clinical isolate; unit assumed
Method in brief: as §1

[13] = system: M. morganii clinical isolates; test: as above; conditions: Table 4B; each table row is one clinical isolate; unit assumed
Method in brief: as §1

[14] = system: P. mirabilis clinical isolates; test: as above; conditions: Table 4B; each table row is one clinical isolate; unit assumed
Method in brief: as §1

[15] = system: P. retgerri clinical isolates; test: as above; conditions: Table 4B; each table row is one clinical isolate; unit assumed
Method in brief: as §1

[16] = system: P. stuartii clinical isolates; test: as above; conditions: Table 4B; each table row is one clinical isolate; unit assumed
Method in brief: as §1

[17] = system: P. vulgaris clinical isolates; test: as above; conditions: Table 4B; each table row is one clinical isolate; unit assumed
Method in brief: as §1

[18] = system: S. liquifaciens clinical isolates; test: as above; conditions: Table 4B; each table row is one clinical isolate; unit assumed
Method in brief: as §1

[19] = system: S. maltophilia clinical isolates; test: as above; conditions: Table 4B; each table row is one clinical isolate; unit assumed
Method in brief: as §1

[20] = system: S. marcescens clinical isolates; test: as above; conditions: Table 4B; each table row is one clinical isolate; unit assumed
Method in brief: as §1

COC(=O)c1sc(-c2ccc(F)cc2)cc1-c1nnnn1C [DNM-145, 5-(4-Fluoro-phenyl)-3-(1-methyl-1H-tetrazol-5-yl)-thiophene-2-carboxylic acid methyl ester]
MIC (A. anitratus ATCC 19606): > 4 µg/mL | MIC (B. cepacia ATCC 25416): > 4 µg/mL | MIC (E. aerogenes ATCC 13048): > 4 µg/mL | MIC (E. coli ATCC 25922): > 4 µg/mL | MIC (E. faecalis ATCC 29212; ATCC29212, E. faecalis ATCC 29212): > 4 µg/mL | MIC (E. faecalis ATCC 29212; ATCC29212, E. faecalis, ATCC number not given): > 4 µg/mL | MIC (K. oxytoca ATCC 49131): > 4 µg/mL | MIC (K. pneumoniae ATCC 13883): > 4 µg/mL | MIC (MRSA ATCC 33591): > 4 µg/mL | MIC (P. vulgaris ATCC 49132): > 4 µg/mL | MIC [1]: > 4 µg/mL | MIC (S. aureus ATCC 29213): > 4 µg/mL | MIC [2]: > 4 µg/mL | MIC (S. marcescens ATCC 8100): > 4 µg/mL | MIC, A. BAUMANII [3]: > 4 µg/mL | MIC, B. CEPACIA [4]: > 4 µg/mL | MIC, C. AMALONATICUS [5]: > 4 µg/mL | MIC, C. FREUNDII [6]: >4 | MIC, C. KOSERI [7]: > 4 µg/mL | MIC, E. AEROGENES [8]: > 4 µg/mL | MIC, E. CLOACAE [9]: > 4 µg/mL | MIC, E. COLI [10]: > 4 µg/mL | MIC, K. OXYTOCA [11]: > 4 µg/mL | MIC, K. PNEUMONIAE [12]: > 4 µg/mL | MIC, M. MORGANII [13]: > 4 µg/mL | MIC, P. MIRABILIS [14]: > 4 µg/mL | MIC, P. RETTGERI [15]: > 4 µg/mL | MIC, P. STUARTII [16]: > 4 µg/mL | MIC, P. VULGARIS [17]: > 4 µg/mL | MIC, S. LIQUEFACIENS [18]: > 4 µg/mL | MIC, S. MALTOPHILIA [19]: > 4 µg/mL | MIC, S. MARCESCENS [20]: > 4 µg/mL
